Experimental data reported in US20090068290A1, “BIFEPRUNOX DOSES FOR TREATING SCHIZOPHRENIA” (priority 2006, published 2009).

Experiments:
Assay type in all cases: in vivo, human
[1] = system: adult subjects with schizophrenia; assay: Adverse events (TEAE, SAE, discontinuation, EPS-related TEAE, anticholinergic use), Clinical Study One
Method: METHODOLOGY: This was a randomized, double-blind, fixed-dose, placebo-controlled, risperidone-referenced, parallel group, multi-center study in adult subjects with schizophrenia. There were five treatment groups in this study. […] Study medication was administered once daily. After Baseline measurements were performed, the titration phase was begun. Bifeprunox treated subjects were titrated up to 5 mg, 10 mg or 20 mg according to a standardized titration schedule (Day 1: 0.125 mg, Day 2: 0.25 mg, Day 3: 0.5 mg, Day 4: 1.0 mg, Day 5: 2.0 mg, Day 6: 5.0 mg, Day 7: 10.0 mg, Day 8: 20 mg).

[2] = system: adult subjects with schizophrenia; assay: Calgary Depression Scale for Schizophrenia (CDSS), Clinical Study Two; conditions: LOCF; for Change from Baseline in CDSS Total Score, Mean (SD) / Change from Baseline in CDSS Total Score, Median: 6 mg
Method: Rating scale assessments were performed weekly, except for week 5, to measure the change from baseline to endpoint of the PANSS total score. Other assessments included: PANSS positive symptom subscale score, PANSS negative symptom subscale score, PANSS general pschopathology subscale score, BPRS total score, BPRS psychosis score, the CGI-S score, the CGI-I score, responder rates based on the PANSS total score, and the Calgary Depression Scale for Schizophrenia (CDSS). […]
Subjects who completed this study had the option to continue in the long-term. […] Risperidone-treated subjects were titrated from 2 mg to 6 mg daily over a three-day period and were subsequently maintained at 6 mg/day for the remainder of the treatment period. […] Blood samples were also obtained at Screening/Baseline, Week 3, and Week 6 for clinical laboratory assessments.

[3] = system: adult subjects with schizophrenia; assay: Calgary Depression Scale for Schizophrenia (CDSS), Clinical Study Three; conditions: LOCF; for Change from Baseline in CDSS Total Score, Median / Change from Baseline in CDSS Total Score, Mean (SD): 15 mg
Excerpt: (§1) SECONDARY OBJECTIVES To assess the efficacy of bifeprunox in treating schizophrenia using the Positive Symptom sub-scale score of the PANSS, the Negative Symptom sub-scale score of the PANSS, the General Psychopathology sub-scale of the PANSS, Brief Psychiatric Rating Scale (BPRS) total score derived from the PANSS, BPRS psychosis score derived from the PANSS, the Clinical Global Impression Severity of Illness score (CGI-S), the Clinical Global Impression Improvement score (CGI-I), CGI-I responder rate, PANSS responder rate based on the PANSS total score, Calgary Depression Scale for Schizophrenia (CDSS), and Subject Satisfaction rating.
(§2) There were four treatment arms in this study, approximately 144 subjects per arm. […] After completing the Single-Blind Placebo Lead-in Period of at least three days, bifeprunox-treated subjects were titrated from 0.25 mg up to 20 mg/day or 30 mg/day according to a standardized titration scheme over a seven- or eight-day period, respectively. When the assigned dose was reached, subjects were maintained at that dose for the remainder of the six week treatment period. […] Subjects were hospitalized (if not already inpatients) after eligibility for study entry was verified, starting from the Screening Visit until at least 10 days after Baseline. Subjects could be hospitalized longer than 10 days if considered medically necessary by the Investigator. Rating scale assessments for efficacy and abnormal movement disorders were done weekly except for Week 5. […] Subject satisfaction with study medication was assessed at Week 6.

[4] = system: adult subjects with schizophrenia; assay: PANSS negative symptom subscale score, Clinical Study Three; conditions: LOCF; for Change from Baseline in PANSS Negative Symptom Subscale Score, Mean (SD) / Change from Baseline in PANSS Negative Symptom Subscale Score, Median: Olanzapine 15 mg, ITT population
Excerpt: as §1, §2

Cc1nc2n(c(=O)c1CCN1CCC(c3noc4cc(F)ccc34)CC1)CCCC2 [Risperidone, risperidone, reference compound]
TEAE Akathisia, % ([1]; 6 mg, Safety Population): (5%)
TEAE Muscle Spasms, % ([1]; 6 mg, Safety Population): (2%)
TEAE Musculoskeletal Stiffness, % ([1]; 6 mg, Safety Population): (<1%)
TEAE Myalgia, % ([1]; 6 mg, Safety Population): (2%)
TEAE NERVOUS SYSTEM DISORDERS, % ([1]; 6 mg, Safety Population): (49%)
TEAE Neck Pain, % ([1]; 6 mg, Safety Population): (2%)
TEAE Neck Stiffness, % ([1]; 6 mg, Safety Population): (<1%)
TEAE Pain in Jaw, % ([1]; 6 mg, Safety Population): (<1%)
TEAE Pain in Limb, % ([1]; 6 mg, Safety Population): (2%)
Affect Lability, % ([1]; Risperidone 6 mg): (<1%)
Agitation, % ([1]; Risperidone 6 mg): (8%)
Alcoholic Hangover, % ([1]; Risperidone 6 mg): (<1%)
Anxiety Aggravated, % ([1]; Risperidone 6 mg): (3%)
Anxiety, % ([1]; Risperidone 6 mg): (6%)
DIZZINESS, % ([1]; Risperidone 6 mg): (5%)
DYSARTHRIA, % ([1]; Risperidone 6 mg): (2%)
Disturbance in Attention, % ([1]; Risperidone 6 mg): (<1%)
Drooling, % ([1]; Risperidone 6 mg): (2%)
Dystonia, % ([1]; Risperidone 6 mg): (4%)
EXTRAPYRAMIDAL DISORDER, % ([1]; Risperidone 6 mg): (3%)
Gait Feastinating, % ([1]; Risperidone 6 mg): (<1%)
Headache Nos, % ([1]; Risperidone 6 mg): (28%)
Hypoaesthesia, % ([1]; Risperidone 6 mg): (<1%)
Migraine Aggravated, % ([1]; Risperidone 6 mg): (<1%)
Oculogyric Crisis, % ([1]; Risperidone 6 mg): (<1%)
PARAESTHESIA, % ([1]; Risperidone 6 mg): (<1%)
PSYCHIATRIC DISORDERS, % ([1]; Risperidone 6 mg): (39%)
SEDATION, % ([1]; Risperidone 6 mg): (13%)
SOMNOLENCE, % ([1]; Risperidone 6 mg): (22%)
TREMOR, % ([1]; Risperidone 6 mg): (<1%)
incidence of aggravated schizophrenia NOS (SAE) ([1]; Risperidone 6 mg): 4%
subjects with at least one AE that led to discontinuation ([1]; Risperidone 6 mg): 14%
subjects with at least one SAE ([1]; Risperidone 6 mg): 16%
subjects with at least one TEAE ([1]; Risperidone 6 mg): 89%
suicide attempt ([1]; Risperidone 6 mg): no subjects
Change from Baseline in CDSS Total Score, Mean (SD) ([2]; Week 1): −0.62 (2.42)
Change from Baseline in CDSS Total Score, Median ([2]; Week 1): 0.0
Change from Baseline in CDSS Total Score, Mean (SD) ([2]; Week 2): −0.74 (2.71)
Change from Baseline in CDSS Total Score, Median ([2]; Week 2): 0.0
Change from Baseline in CDSS Total Score, Mean (SD) ([2]; Week 3): −0.93 (3.41)
Change from Baseline in CDSS Total Score, Median ([2]; Week 3): 0.0
Change from Baseline in CDSS Total Score, Mean (SD) ([2]; Week 4): −0.95 (3.08)
Change from Baseline in CDSS Total Score, Median ([2]; Week 4): 0.0
Change from Baseline in CDSS Total Score, Mean (SD) ([2]; Week 6/Endpoint): −0.89 (3.42)
Change from Baseline in CDSS Total Score, Median ([2]; Week 6/Endpoint): 0.0
mean change (SD) from Baseline to Endpoint in CDSS score ([2]; risperidone 6 mg, ITT): −0.89 (3.42)

Cc1cc2c(s1)Nc1ccccc1N=C2N1CCN(C)CC1 [Olanzapine, olanzapine, reference compound]
Change from Baseline in CDSS Total Score, Median ([3]; Week 1): −1.0
Change from Baseline in CDSS Total Score, Mean (SD) ([3]; Week 2): −1.33 (3.33)
Change from Baseline in CDSS Total Score, Median ([3]; Week 2): −1.0
Change from Baseline in CDSS Total Score, Mean (SD) ([3]; Week 3): −1.59 (3.43)
Change from Baseline in CDSS Total Score, Median ([3]; Week 3): −1.0
Change from Baseline in CDSS Total Score, Mean (SD) ([3]; Week 4): −1.49 (3.89)
Change from Baseline in CDSS Total Score, Median ([3]; Week 4): −1.0
Change from Baseline in CDSS Total Score, Mean (SD) ([3]; Week 6, Endpoint): −1.47 (3.95)
Change from Baseline in CDSS Total Score, Median ([3]; Week 6, Endpoint): −1.0
mean change (SD) from Baseline to Endpoint in CDSS score ([3]; olanzapine 15 mg, ITT): −1.47 (3.95)
Change from Baseline in PANSS Negative Symptom Subscale Score, Mean (SD) ([4]; Week 1): −1.8 (3.1)
Change from Baseline in PANSS Negative Symptom Subscale Score, Median ([4]; Week 1): −1
Change from Baseline in PANSS Negative Symptom Subscale Score, Mean (SD) ([4]; Week 2): −3.0 (3.8)
Change from Baseline in PANSS Negative Symptom Subscale Score, Median ([4]; Week 2): −3
Change from Baseline in PANSS Negative Symptom Subscale Score, Mean (SD) ([4]; Week 3): −4.0 (4.8)
Change from Baseline in PANSS Negative Symptom Subscale Score, Median ([4]; Week 3): −3
Change from Baseline in PANSS Negative Symptom Subscale Score, Mean (SD) ([4]; Week 4): −4.0 (4.9)
Change from Baseline in PANSS Negative Symptom Subscale Score, Median ([4]; Week 4): −4
Change from Baseline in PANSS Negative Symptom Subscale Score, Mean (SD) ([4]; Week 6/Endpoint): −4.6 (5.2)
Change from Baseline in PANSS Negative Symptom Subscale Score, Median ([4]; Week 6/Endpoint): −4
mean change (SD) from Baseline to Endpoint in PANSS Negative Symptom subscale score ([4]; olanzapine 15 mg, ITT): −4.6 (5.2)
